{
  "source": "patent US7345096B2",
  "about": "“Use of norepinephrine reuptake modulators for preventing and treating vasomotor symptoms” (Wyeth, priority 2002, dated 2008)",
  "key": {"[1]": {"tested_on": "naloxone-induced flush (tail skin temperature)", "assay": "Morphine-dependent rat model of hot flush (MD model)", "details": "for ED50: Rattus norvegicus, read-out: ED50 value, abatement of naloxone-induced flush; for effect on naloxone-induced flush at maximal flush: 1 hour prior to naloxone, 15 minutes post-naloxone", "method": "(§1) Dosinq: All doses were prepared based on mg/kg.\n(§2) Animals: Ovariectomized Sprague-Dawley rats (180-220 g) were obtained from a commercial vendor (Taconic, Germantown, N.Y.) and individually housed under 12 hours light/dark cycle in a room maintained at 25° C. Animals were provided with standard rat chow and water ad libitum.\nMorphine-dependent model: Ovariectomized rats were injected once daily for 8-9 days with vehicle to minimize stress responses and then administered compound(s) on test day. On day 4 of dosing, morphine dependence was induced by sc implantation of two slow-release morphine pellets (75 mg/pellet) in the dorsal scapular region. […] Four to six days after implantation, morphine withdrawal was induced with an opioid antagonist (naloxone) that causes a transient increase in TST. […] Rats were mildly sedated with ketamine and a thermistor connected to a MacLab data acquisition system was taped to the base of the tail. Tail skin temperature was then monitored continuously for 35 minutes to establish a baseline temperature. Naloxone was subsequently administered and TST was measured for an additional 35 to 60 minutes (total recording time 70 to 95 minutes).\nStatistical analysis: To analyze changes in TST induced by naloxone in morphine-dependent rats, all data were analyzed using a two factor repeated measure ANOVA for “treatment” and “time.” The model was fit to test whether there were significant differences in the responses between treatment groups. Naloxone administration is designated as time zero and data is then analyzed at 5 minute intervals. The first three readings were averaged and used as baseline TST scores. All data were analyzed as ΔTST (TST for each time point—baseline). Multiple comparisons (LSD p-values) among the treatment groups at each time point were used for the analysis. Efficacy of hot flush abatement was determined by evaluating statistical differences at the peak response time of 15 minutes post-naloxone, when the maximal change in TST is observed. A customized SAS-excel (SAS Institute, Cary, N.C.) application was used applying a four parameter logistic model to determine ED50 values. A logistic dose transformation was performed on ΔTST. Maximum flush (ΔTST at 15 minutes post-naloxone) was used in the analysis and the minimum was locked at zero."}, "[2]": {"tested_on": "tail skin temperature during active (dark) phase", "assay": "OVX-induced thermoregulatory dysfunction telemetry model", "method": "as §1, §2\nA temperature and physical activity transmitter (PhysioTel TA10TA-F40, Data Sciences International) was implanted subcutaneously in the dorsal scapular region and the tip of the temperature probe was tunneled subcutaneously 2.5 cm beyond the base of the tail. After a 7-day recovery period, TST readings were continuously recorded for the remainder of the study. Tail skin temperature readings were collected from each animal every 5 minutes with values obtained over a 10 second sampling period. The day before test day, an average baseline TST value was calculated for each animal by averaging temperature readings recorded during the 12 hours active (dark) phase. In these studies, animals were dosed approximately 1 hour prior to the onset of dark cycle.\nEvaluation of a compound's ability to restore normal lowering of TST in the telemetry model was analyzed using hourly TST values calculated for each animal by averaging the 12 temperature readings obtained every 5 minutes over that recording time. To analyze ΔTST in the telemetry model, a two factors repeated measure ANOVA was performed. The model used for analysis was ΔTST=GRP (group)+HR (hours)+GRP*HR+BASELINE. Thus, the reported least squares means are the expected mean values as if both groups had the same baseline value. Post-hoc tests of hourly GRP*HR samples are t-tests of the difference between groups for each hour. To be conservative, a result was not considered significant unless the p-value was <0.025. All analyses were performed using SAS PROC MIXED (SAS, Carey, N.C.)."}},
  "data": [
    {"compound": "CN(C)CC(c1ccc(O)cc1)C1(O)CCCCC1", "note": "(centres unmarked) [DVS-233, O-desmethyl-venlafaxine]", "values": [
      {"measurement": "ED50", "setting": "[1]; sc", "result": 30, "unit": "mg/kg"},
      {"measurement": "changes in TST over time", "setting": "[2]; 60 mg/kg sc", "result": "significantly and transiently decreases TST during the active phase"}
    ]},
    {"compound": "CCC1(c2cnc[nH]2)Cc2ccccc2C1", "note": "[atipamezole]", "values": [
      {"measurement": "changes in TST after naloxone vs vehicle", "setting": "[1]; atipamezole 0.3 mg/kg sc alone, 55 minutes prior to naloxone", "result": "not significantly different from vehicle treated rats"}
    ]},
    {"compound": "COc1ccc(C(CN(C)C)C2(O)CCCCC2)cc1", "note": "(centres unmarked) [venlafaxine]", "values": [
      {"measurement": "effect on elevated naloxone-dependent hot flush induced by atipamezole", "setting": "[1]; rat, in vivo", "result": "able to alleviate"},
      {"measurement": "changes in TST over time", "setting": "[2]; 15 mg/kg sc", "result": "significantly and transiently decreased TST during the active phase"}
    ]},
    {"compound": "CN(C)CC(c1cccc(Cl)c1)C1(O)CCCCC1", "note": "(centres unmarked) [WY-781]", "values": [
      {"measurement": "effect on naloxone-induced flush at maximal flush", "setting": "[1]; 30 mg/kg intraperitoneally", "result": "abated the naloxone-induced flush"}
    ]},
    {"compound": "CN(C)CC(c1cccc(C(F)(F)F)c1)C1(O)CCCCC1", "note": "(centres unmarked) [WY-867]", "values": [
      {"measurement": "effect on naloxone-induced flush at maximal flush", "setting": "[1]; 30 mg/kg intraperitoneally", "result": "abated the naloxone-induced flush"}
    ]},
    {"compound": "CNCCC(Oc1ccc(C(F)(F)F)cc1)c1ccccc1", "note": "(centres unmarked) [fluoxetine]", "values": [
      {"measurement": "effect on naloxone-induced flush", "setting": "[1]; fluoxetine 10 mg/kg sc alone", "result": "did not abate the naloxone-induced flush"}
    ]},
    {"compound": "CCOc1ccccc1OC(c1ccccc1)C1CNCCO1", "note": "(centres unmarked) [reboxetine]", "values": [
      {"measurement": "changes in TST over time after naloxone", "setting": "[1]; dose response, sc", "result": "dose-dependently abate the naloxone-induced flush"},
      {"measurement": "effect on naloxone-induced flush at maximal flush", "setting": "[1]; dose response, sc", "result": "dose-dependently abates the naloxone-induced flush"}
    ]},
    {"compound": "CNCCCN1c2ccccc2CCc2ccccc21", "note": "[desipramine]", "values": [
      {"measurement": "abatement of naloxone-induced flush", "setting": "[1]; 1 mg/kg sc, 40 minutes prior to naloxone, alone", "result": "approximately 50%"},
      {"measurement": "abatement of hot flush", "setting": "[1]; 3 mg/kg desipramine co-administered with 10 mg/kg dose of SRI", "result": 100, "unit": "%"},
      {"measurement": "ED50", "setting": "[1]; sc", "result": 1, "unit": "mg/kg"},
      {"measurement": "effect on naloxone-induced flush at maximal flush", "setting": "[1]; dose response, sc", "result": "dose-dependently abates the naloxone-induced flush"},
      {"measurement": "reduction of TST compared to vehicle treated rats in naloxone-induced hot flush", "setting": "[1]; low dose", "result": 50, "unit": "%"},
      {"measurement": "changes in TST over time", "setting": "[2]; 10 mg/kg sc", "result": "significantly decreases TST over the entire length of the active phase"}
    ]},
    {"compound": "CN1CCN(CC(c2cccc(Cl)c2)C2(O)CCCCC2)CC1", "note": "(racemic) [1-[1-(3-chlorophenyl)-2-(4-methyl-1-piperazinyl)ethyl]cyclohexanol]", "values": [
      {"measurement": "changes in TST over time after naloxone", "setting": "[1]; dose response, sc", "result": "dose-dependently abate the naloxone-induced flush"}
    ]}
  ]
}
